# Data taken from PubChem BioAssay AID1259407 (Chemical Carcinogenesis Research Information System (CCRIS), 2018).
# Active and inactive are the calls of the source. The rule behind the calls is not given here.
# System: CCRIS mutagenicity, Ames/micronucleus/aberration tests
# Assay: CCRIS mutagenicity studies
# [1] = Test System: AMES SALMONELLA TYPHIMURIUM, Strain/Indicator: TA98, Metabolic Activation: NONE, Method: STANDARD PLATE
# [2] = Test System: AMES SALMONELLA TYPHIMURIUM, Strain/Indicator: TA100, Metabolic Activation: NONE, Method: STANDARD PLATE
# [3] = Test System: AMES SALMONELLA TYPHIMURIUM, Strain/Indicator: TA98, Metabolic Activation: NONE, Method: PREINCUBATION
# [4] = Test System: AMES SALMONELLA TYPHIMURIUM, Strain/Indicator: TA100, Metabolic Activation: NONE, Method: PREINCUBATION
compound,measurement,setting,value
CC1CCC(C(C)C)C(=O)C1 (centres undefined),mutagenic call,"Test System: AMES SALMONELLA TYPHIMURIUM, Strain/Indicator: TA97, Metabolic Activation: NONE, Method: STANDARD PLATE",active; positive
same,mutagenic call,[1],inactive; negative
same,mutagenic call,"Test System: AMES SALMONELLA TYPHIMURIUM, Strain/Indicator: TA98, Metabolic Activation: RAT, LIVER, S-9, AROCLOR 1254, Method: STANDARD PLATE",inactive; negative
same,mutagenic call,[2],inactive; negative
same,mutagenic call,"Test System: AMES SALMONELLA TYPHIMURIUM, Strain/Indicator: TA100, Metabolic Activation: RAT, LIVER, S-9, AROCLOR 1254, Method: STANDARD PLATE",inactive; negative
same,mutagenic call,"Test System: AMES SALMONELLA TYPHIMURIUM, Strain/Indicator: TA1535, Metabolic Activation: NONE, Method: STANDARD PLATE",inactive; negative
same,mutagenic call,"Test System: AMES SALMONELLA TYPHIMURIUM, Strain/Indicator: TA1535, Metabolic Activation: RAT, LIVER, S-9, AROCLOR 1254, Method: STANDARD PLATE",inactive; negative
same,mutagenic call,"Test System: AMES SALMONELLA TYPHIMURIUM, Strain/Indicator: TA1537, Metabolic Activation: NONE, Method: STANDARD PLATE",inactive; negative
same,mutagenic call,"Test System: AMES SALMONELLA TYPHIMURIUM, Strain/Indicator: TA1537, Metabolic Activation: RAT, LIVER, S-9, AROCLOR 1254, Method: STANDARD PLATE",inactive; negative
CCN(CC)c1ccc2c(C)cc(=O)oc2c1,mutagenic call,"Test System: AMES SALMONELLA TYPHIMURIUM, Strain/Indicator: TA98, Metabolic Activation: HAMSTER, LIVER, S-9, AROCLOR 1254, Method: PREINCUBATION",inactive; negative
same,mutagenic call,[3],inactive; negative
same,mutagenic call,"Test System: AMES SALMONELLA TYPHIMURIUM, Strain/Indicator: TA98, Metabolic Activation: RAT, LIVER, S-9, AROCLOR 1254, Method: PREINCUBATION",inactive; negative
same,mutagenic call,"Test System: AMES SALMONELLA TYPHIMURIUM, Strain/Indicator: TA100, Metabolic Activation: HAMSTER, LIVER, S-9, AROCLOR 1254, Method: PREINCUBATION",inactive; negative
same,mutagenic call,[4],inactive; negative
same,mutagenic call,"Test System: AMES SALMONELLA TYPHIMURIUM, Strain/Indicator: TA100, Metabolic Activation: RAT, LIVER, S-9, AROCLOR 1254, Method: PREINCUBATION",inactive; negative
same,mutagenic call,"Test System: AMES SALMONELLA TYPHIMURIUM, Strain/Indicator: TA1535, Metabolic Activation: HAMSTER, LIVER, S-9, AROCLOR 1254, Method: PREINCUBATION",inactive; negative
same,mutagenic call,"Test System: AMES SALMONELLA TYPHIMURIUM, Strain/Indicator: TA1535, Metabolic Activation: NONE, Method: PREINCUBATION",inactive; negative
same,mutagenic call,"Test System: AMES SALMONELLA TYPHIMURIUM, Strain/Indicator: TA1535, Metabolic Activation: RAT, LIVER, S-9, AROCLOR 1254, Method: PREINCUBATION",inactive; negative
same,mutagenic call,"Test System: AMES SALMONELLA TYPHIMURIUM, Strain/Indicator: TA1537, Metabolic Activation: HAMSTER, LIVER, S-9, AROCLOR 1254, Method: PREINCUBATION",inactive; negative
same,mutagenic call,"Test System: AMES SALMONELLA TYPHIMURIUM, Strain/Indicator: TA1537, Metabolic Activation: NONE, Method: PREINCUBATION",inactive; negative
same,mutagenic call,"Test System: AMES SALMONELLA TYPHIMURIUM, Strain/Indicator: TA1537, Metabolic Activation: RAT, LIVER, S-9, AROCLOR 1254, Method: PREINCUBATION",inactive; negative
CC[C@]1(O)CC2CN(CCc3c([nH]c4ccccc34)[C@@](C(=O)OC)(c3cc4c(cc3OC)N(C=O)[C@H]3[C@@](O)(C(=O)OC)[C@H](OC(C)=O)[C@]5(CC)C=CCN6CC[C@]43[C@@H]65)C2)C1 (some centres undefined),mutagenic call,"End Point: In vitro micronucleus, Test System: Human lymphoblastoid TK6 cells, Metabolic Activation: None",active; positive (p<0.001)
same,mutagenic call,"End Point: In vivo micronucleus, Test System: Peripheral blood lymphocytes, Species: Human, Strain/Sex: Workers (6 males and 9 females) and matched controls, Route: Occupational","active; positive, both mean micronuclei rate and mean micronucleated cells rate signific"
same,mutagenic call,[3],inactive; negative
same,mutagenic call,[1],inactive; negative
same,mutagenic call,"Test System: AMES SALMONELLA TYPHIMURIUM, Strain/Indicator: TA98, Metabolic Activation: S-9, Method: PREINCUBATION",inactive; negative
same,mutagenic call,"Test System: AMES SALMONELLA TYPHIMURIUM, Strain/Indicator: TA98, Metabolic Activation: S-9, Method: STANDARD PLATE",inactive; negative
same,mutagenic call,[4],inactive; negative
same,mutagenic call,[2],inactive; negative
same,mutagenic call,"Test System: AMES SALMONELLA TYPHIMURIUM, Strain/Indicator: TA100, Metabolic Activation: S-9, Method: PREINCUBATION",inactive; negative
same,mutagenic call,"Test System: AMES SALMONELLA TYPHIMURIUM, Strain/Indicator: TA100, Metabolic Activation: S-9, Method: STANDARD PLATE",inactive; negative
same,mutagenic call,"Test System: AMES SALMONELLA TYPHIMURIUM, Strain/Indicator: TA1537, Metabolic Activation: S-9, Method: STANDARD PLATE",inactive; negative
same,mutagenic call,"Test System: CHINESE HAMSTER V-79, Strain/Indicator: V-79 (HGPRT)/6-THIOGUANINE, Metabolic Activation: NONE",inactive; negative
same,mutagenic call,"Test System: CHINESE HAMSTER V-79, Strain/Indicator: V-79/6-THIOGUANINE, Metabolic Activation: NONE, Method: SUSPENSION/PLATE",inactive; negative
same,mutagenic call,"Test System: CHINESE HAMSTER V-79, Strain/Indicator: V-79/6-THIOGUANINE, Metabolic Activation: RAT, LIVER, HEPATOCYTES, Method: SUSPENSION/PLATE",inactive; negative
same,mutagenic call,"Test System: E. COLI, Strain/Indicator: WP2 (HCR), Metabolic Activation: NONE, Method: STANDARD PLATE",inactive; negative
same,mutagenic call,"Test System: E. COLI, Strain/Indicator: WP2 (HCR), Metabolic Activation: S-9, Method: STANDARD PLATE",inactive; negative
same,mutagenic call,"Test System: MOUSE LYMPHOMA, Strain/Indicator: L5178Y (TK+/TK-), Metabolic Activation: NONE",active; positive
CC(=O)N(O)c1ccc(/C=C\c2ccccc2)cc1,mutagenic call,"Test System: UDS HUMAN FIBROBLASTS, Strain/Indicator: THY INCORP (NON-S-PHASE), Metabolic Activation: NONE, Method: AUTORADIOGRAPHY",active; positive
